Data on one compound can be found in EP3431484A1, “A FLUORESCENT CYCLIC DINUCLEOTIDE AND ITS USE IN METHODS OF IDENTIFYING SUBSTANCES HAVING AN ABILITY TO MODULATE THE CGAS/STING PATHWAY” (Ludwig-Maximilians-Universität München, priority 2017, dated 2019).

This test deals with human truncated STING (hSTING^cd), cytosolic domain aa 139-379, R220H+H232R variant. Particulars: 200 µM hSTING^cd, 0-150 µM competitor; Figure 10d.

Protocol: The quenching effect of STING on 2'3'fGAMP can be further used to search and compare STING-binding compounds. […] After second round of incubation for 15 min the samples were measured in 96-well black non-binding PS plates (Greiner Bio-One) on Tecan infinite M1000 (λex=305 nm, λem=363 nm, gain 140, settle time 10ms) at 25°C.

In the case of `Nc1nc2c(ncn2[C@@H]2O[C@@H]3COP(=O)(O)O[C@H]4[C@@H](O)[C@H](n5cnc6c(=O)[nH]c(N)nc65)O[C@@H]4COP(=O)(O)O[C@H]3[C@H]2O)c(=O)[nH]1` [c-di-GMP], the “affinity towards STING, compared by slope of fluorescence increase (s1, s2)” value is “lower affinity”.
